Source: the supplement of paper PMC11208160

Experiment: recombinant barcode read abundance after kanamycin selection (control-corrected) (log10(CPM+1)); higher = more efficient recombination; sequences stand for … in AGTGCAGAGAAAATCGGCCAGTTTTCTCTGCCTGCAGTCCGCATGCCGT…AGATTTATGCAGCGGACTGCCTTTCTCCCAAAGTGATAAACCGGACAGTATCATGGACCGGTTTTCCCGGTAATCCGTATTTGCAAGGTTGGTTTCACT; site = the 11-nt target
Outline: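 In a pooled screen in E. coli, targets were paired with target-binding loops of the IS621 bridge RNA. Each oligo carried a promoter, a target, a barcode and the first 104 bridge RNA bases driven by J23119, and was Gibson-cloned into a vector holding the remaining 73 bp and a T7-inducible recombinase before co-electroporation with a donor plasmid. Duplicate platings went onto chloramphenicol/ampicillin LB agar as the control or onto chloramphenicol/ampicillin/kanamycin with 0.1 mM IPTG. Recombination efficiency is the averaged, control-corrected count per million of barcodes at recombinant junctions, given as log10(CPM+1).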
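Also: IS621 recombinase and bridge RNA in Escherichia coli cells.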

| Sequence | recombinant barcode read abundance (log10) |
| --- | --- |
| GAGTGAACTTGGGTTCTAACCTGTTGCCA (site GTGTGTACTTG) | 0.435 |
| TGGCTAGCTTGGGTTCTAACCTGTTGCCT (site TGGCTAGCTAG) | 0.242 |
| CTCGGATCTTGGGTTCTAACCTGTTGCCT (site CTCGGATCTAG) | 1.3 |
| CCACAGTCTTGGGTTCTAACCTGTTGCCT (site CCACCGTCTAG) | 0.117 |
| ACGAAGCCTTGGGTTCTAACCTGTTGCCT (site ACGAAGCCTAG) | 1.35 |
| TGAGATTCTTGGGTTCTAACCTGTTGCAT (site TGTGATCCTAT) | 0.0159 |
| TAGCAGACTTGGGTTCTAACCTGTTGCCT (site TAGCGGACTAG) | 0.0243 |
| TAGTAAGCTTGGGTTCTAACCTGTTGCTG (site TAGTACGCTCT) | 0.142 |
| GGTAAATCTTGGGTTCTAACCTGTTGCCT (site GGTAAGTCTAG) | 0.359 |
| CCACGGCCTTGGGTTCTAACCTGTTGCAT (site CCACGGCCTAT) | 1.21 |
| CACGGTCCTTGGGTTCTAACCTGTTGCGG (site AACGCTCCTCC) | 0.0287 |
| TTCGCGCCTTGGGTTCTAACCTGTTGCCT (site TTCTCGCCTAG) | 0.176 |
| TAAGGAGCTTGGGTTCTAACCTGTTGCCT (site TAAGGAGCTAG) | 1.39 |
| CGCCCTCCTTGGGTTCTAACCTGTTGCAT (site CGCCGTCCTAT) | 0.117 |
| TAGGTGCCTTGGGTTCTAACCTGTTGCAT (site TAGGTACCTAT) | 1.21 |
| TACACTACTTGGGTTCTAACCTGTTGCCG (site TACACGACTCC) | 0.0364 |
| TCCGTGACTTGGGTTCTAACCTGTTGCCT (site TCCGTGACTAG) | 2.07 |
| GGTGCTCCTTGGGTTCTAACCTGTTGCAC (site GGTGCTCCTTT) | 0.216 |
| AGTCAGCCTTGGGTTCTAACCTGTTGCCT (site AGTAAGCCTAG) | 0.0129 |
| CATAGACCTTGGGTTCTAACCTGTTGCAT (site CATAGACCTAT) | 1.82 |
| TAGGCTCCTTGGGTTCTAACCTGTTGCAT (site TAGGCTCCTTT) | 0.0761 |
| ATAAGCTCTTGGGTTCTAACCTGTTGCCT (site ATAAGCTCTAG) | 2.3 |

| Sequence | recombinant barcode read abundance (log10) |
| --- | --- |
| ATTTCTTCTTGGGTTCTAACCTGTTGCCT (site ATTTCTTCTAG) | 0.0847 |
| CGGCTATCTTGGGTTCTAACCTGTTGCCT (site CGGCTATCTAG) | 0.194 |
| TGCGAGTCTTGGGTTCTAACCTGTTGCGT (site TGCGAGTCTAC) | 2.87 |
| GTTACTACTTGGGTTCTAACCTGTTGCCG (site GTTACTACTCG) | 0.13 |
| CGCAGCCCTTGGGTTCTAACCTGTTGCAT (site CGGAGCCCTAT) | 0.0663 |
| GAGTTCGCTTGGGTTCTAACCTGTTGCGG (site TAGTCCGCTCC) | 0 |
| ACGCATCCTTGGGTTCTAACCTGTTGCCT (site ACGCATCCTAG) | 0.0284 |
| CGTGCGACTTGGGTTCTAACCTGTTGCAT (site CGTACGACTAT) | 0.0517 |
| GAACCTTCTTGGGTTCTAACCTGTTGCGG (site TTCTACACTAT) | 0.0281 |
| GACTTACCTTGGGTTCTAACCTGTTGCCT (site GACGTACCTAG) | 0.111 |
| TCCTAACCTTGGGTTCTAACCTGTTGCTG (site ACCTAACCTCT) | 0.0586 |
| ATCACGCCTTGGGTTCTAACCTGTTGCCT (site ACCACGCCTAG) | 0.128 |
| GTTGGGGCTTGGGTTCTAACCTGTTGCGG (site GTTGGGGCTCC) | 2 |
| AGATAGCCTTGGGTTCTAACCTGTTGCCT (site TGATAGCCTAG) | 0.206 |
| ACACTGTCTTGGGTTCTAACCTGTTGCGG (site ACAATGTCTCC) | 0.0253 |
| GAGTGAACTTGGGTTCTAACCTGTTGCCA (site GAGTGAACTTG) | 0.849 |
| CGCAGCTCTTGGGTTCTAACCTGTTGCCT (site CGCAGCTCTAG) | 0.0301 |
| TAGAACTCTTGGGTTCTAACCTGTTGCCA (site TAGAACTCTGG) | 0.0926 |
| CATTGCCCTTGGGTTCTAACCTGTTGCCT (site CGTTGCCCTAG) | 0.242 |
| CTTCAACCTTGGGTTCTAACCTGTTGCCT (site CTTCACCCTAG) | 0.215 |
| TCAAAGGCTTGGGTTCTAACCTGTTGCCT (site TCGAAGGCTAG) | 0.13 |
| CAGTAGTCTTGGGTTCTAACCTGTTGCCT (site CAGTATTCTAG) | 0.0913 |

| Sequence | recombinant barcode read abundance (log10) |
| --- | --- |
| GATAACGCTTGGGTTCTAACCTGTTGCCT (site ATGGTACCTTA) | 0.0115 |
| TGAGTACCTTGGGTTCTAACCTGTTGCTT (site TGAGTGCCTAA) | 0.856 |
| AAGCGTCCTTGGGTTCTAACCTGTTGCCT (site AAGCGTCCTAG) | 1.24 |
| TGCGCAACTTGGGTTCTAACCTGTTGCCT (site TGCGCCACTAG) | 0.256 |
| CCATCTCCTTGGGTTCTAACCTGTTGCCT (site GCATCTCCTAG) | 0.127 |
| ATGAGCTCTTGGGTTCTAACCTGTTGCTA (site ATGAGCTCTTA) | 1.12 |
| ACGAAGCCTTGGGTTCTAACCTGTTGCCT (site GCGACGCCTAG) | 0.19 |
| ATGGCCTCTTGGGTTCTAACCTGTTGCCT (site ATGGCCTCTAG) | 2.2 |
| TTAGGGGCTTGGGTTCTAACCTGTTGCCT (site TTAGGGCCTAG) | 0.08 |
| GGCGGCTCTTGGGTTCTAACCTGTTGCCT (site ACATAAGCTTA) | 0.103 |
| AGGATAACTTGGGTTCTAACCTGTTGCCT (site AGGATACCTAG) | 0 |
| GATGGGCCTTGGGTTCTAACCTGTTGCGT (site GCTGGGCCTTC) | 0.246 |
| CTAAATACTTGGGTTCTAACCTGTTGCCG (site CTAAGCACTCG) | 0.188 |
| CCGAATGCTTGGGTTCTAACCTGTTGCCT (site CCGCATGCTAG) | 0.0438 |
| CTAAGCTCTTGGGTTCTAACCTGTTGCTG (site CTAAGCTCTAA) | 0.259 |
| CGGAAGGCTTGGGTTCTAACCTGTTGCCT (site CGGAAGCCTAG) | 0.0918 |
| GAGAAGACTTGGGTTCTAACCTGTTGCGT (site ACTCGTCCTTA) | 0.118 |
| GATAGGACTTGGGTTCTAACCTGTTGCCT (site GATAGGACTAG) | 0.647 |
| CGATTAGCTTGGGTTCTAACCTGTTGCCG (site CGATTAGCTCG) | 0.536 |
| CCACTACCTTGGGTTCTAACCTGTTGCCT (site CCACTGCCTAG) | 0.0373 |
| AGTAATTCTTGGGTTCTAACCTGTTGCCT (site AGAAATTCTAG) | 0.0418 |
| ACTAACCCTTGGGTTCTAACCTGTTGCCT (site AATAACCCTAG) | 0.0415 |

| Sequence | recombinant barcode read abundance (log10) |
| --- | --- |
| ACGAACGCTTGGGTTCTAACCTGTTGCCT (site ACGACCGCTAG) | 0.344 |
| ATCACGCCTTGGGTTCTAACCTGTTGCCT (site ATCACGCCTAG) | 0.544 |
| TTGAGTCCTTGGGTTCTAACCTGTTGCCT (site TTGAGTCCTAG) | 1.04 |
| AGTTACACTTGGGTTCTAACCTGTTGCCT (site AGTTTCACTAG) | 0.0317 |
| CTACGTACTTGGGTTCTAACCTGTTGCCT (site CTACGTACTAG) | 1.3 |
| GAGCGAGCTTGGGTTCTAACCTGTTGCGG (site GAGCGAGCTCT) | 1.07 |
| CCGCTACCTTGGGTTCTAACCTGTTGCGG (site CCGCTACCTCC) | 0.474 |
| ACTGTAACTTGGGTTCTAACCTGTTGCTT (site ACTCTAACTAA) | 0.0186 |
| CTAATGACTTGGGTTCTAACCTGTTGCAC (site CTAATGACTGT) | 1.43 |
| GTCCGCTCTTGGGTTCTAACCTGTTGCCT (site TTCCGCTCTAG) | 0.383 |
| GGCCTCCCTTGGGTTCTAACCTGTTGCAT (site GGCCTCCCTAT) | 0.743 |
| TTGCGAACTTGGGTTCTAACCTGTTGCCT (site TTGCAAACTAG) | 0.0904 |
| CTATAGACTTGGGTTCTAACCTGTTGCCT (site CTATCGACTAG) | 0.163 |
| CTCTTAGCTTGGGTTCTAACCTGTTGCAA (site CTCTTAACTTA) | 0.0112 |
| GAGTGGCCTTGGGTTCTAACCTGTTGCTT (site GAGTGGCCTAT) | 0.541 |
| GTCCAGCCTTGGGTTCTAACCTGTTGCAC (site CAAAGAGCTCA) | 0.291 |
| CTTGACACTTGGGTTCTAACCTGTTGCCT (site CTTGACACTAG) | 2.07 |
| GCACACCCTTGGGTTCTAACCTGTTGCCT (site CCACATCCTAG) | 0.0345 |
| AGTATACCTTGGGTTCTAACCTGTTGCTG (site AGTATACCTCA) | 1.31 |
| TGGAGCCCTTGGGTTCTAACCTGTTGCAC (site TGGAGCCCTAT) | 0.0355 |
